Among the data in patent US11548875B2, “Inhibitor compounds for male contraception” (University of Washington, priority 2018, dated 2023) are IC50 values, retold here.

One assay has as its target T1, ALDH1A1 (Homo sapiens, UniProt P00352).
T1 sequence (P00352 1-501): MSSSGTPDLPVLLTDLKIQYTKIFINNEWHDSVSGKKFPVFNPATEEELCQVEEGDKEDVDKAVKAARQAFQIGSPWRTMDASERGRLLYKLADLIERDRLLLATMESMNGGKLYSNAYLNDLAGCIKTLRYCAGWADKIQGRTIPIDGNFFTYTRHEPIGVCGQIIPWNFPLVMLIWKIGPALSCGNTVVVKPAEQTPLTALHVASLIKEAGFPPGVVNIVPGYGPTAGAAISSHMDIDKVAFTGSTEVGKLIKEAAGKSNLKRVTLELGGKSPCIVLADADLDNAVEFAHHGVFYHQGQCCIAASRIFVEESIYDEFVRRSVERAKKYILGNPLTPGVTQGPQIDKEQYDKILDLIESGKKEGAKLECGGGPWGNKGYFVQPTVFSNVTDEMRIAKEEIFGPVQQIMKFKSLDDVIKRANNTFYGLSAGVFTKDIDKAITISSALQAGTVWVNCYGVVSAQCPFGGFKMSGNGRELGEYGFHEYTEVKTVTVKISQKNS
The experiment in a line: Inhibitor screening using purified enzymes: ALDH1A1 activity, retinoic acid production by HPLC. The format is biochemical. As to conditions: purified enzyme. An excerpt: ALDHs were cloned into bacterial expression vector for in vitro enzyme assays and into mammalian expression vectors for cell-based enzyme assays. Human ALDH1A1 cDNA and human ALDH2 cDNA were purchased from OriGene (SC321535) and Open Biosystems (MHS4771-99611182), respectively. and human ALDH1A2 cDNA was cloned from human testis RNA using RT-PCR (Population Division of the Department of Economic and Social Affairs of the United Nations Secretariat. World Population prospects: the 2008 revision. Available at http://www.un.org/esa/population/ (Retrieved Sep. 30, 2011)). For bacterial expression, an open reading frame of ALDH1A1 and ALDH2 were subcloned into the pETite vector (Lucigen) with a 5′ histidine-tag and that of ALDH1A2 into a pET28 vector (Novagen) with a 3′ histidine-tag. Correct frame and sequences were verified through DNA sequencing (UW DNA sequencing facility). ALDHs were induced with 1 mM IPTG and purified using His.Bind resin (Novagen, San Diego, Calif.) and stored in a buffer containing 20 mM Hepes (pH 8), 150 mM KCl and 1 mM EDTA as previously described (Fierce, Y., de Morais Vieira, M., Piantedosi, R., Wyss, A., Blaner, W. S., and Paik, J. (2008) In vitro and in vivo characterization of retinoid synthesis from beta-carotene. Archives of biochemistry and biophysics 472, 126-138).
ALDH1A1 and ALDH1A2 activity was determined as previously reported (Beedle M T, Stevison F, Zhong G, Topping T, Hogarth C, Isoherranen N, Griswold M D. Sources of All-Trans Retinal Oxidation Independent of the Aldehyde Dehydrogenase 1A Isozymes Exist in the Postnatal Testis. Biol Reprod. 2018 Sep. 21. doi: 10.1093/biolre/ioy200). Briefly, purified enzymes were incubated in a buffer containing 10 mM HEPES buffer (pH 8.0), 150 mM potassium chloride and 2 mM EDTA with 2 mM NAD. Retinoic acid production was determined using HPLC as previously reported (Amory J K, Muller C H, Shimshoni A J, Isoherranen N, Paik J, Moreb J S, Amory D W, Evanoff R, Goldstein A S, Griswold M D. Suppression of spermatogenesis by bisdichloroacetyldiamines is mediated by inhibition of testicular retinoic acid biosynthesis. Journal of Andrology 2011; 32(1):111-119). Inhibitors were diluted in DMSO and added to the reactions. […] For initial screening of inhibitors for ALDH1A2, 1 μg ALDH1A2, 5 μM all-trans-retinal and 5 μM inhibitors were incubated for 15 min at 37° C. […] For this purpose, 0.5 μg ALDH1A2 and […] were incubated for 5 minutes at 37° C. with varying concentrations of inhibitors. To determine specificity toward ALDH1A2, the IC50 for […]

For the next assay, the target named is T2, ALDH2 (Homo sapiens, UniProt P05091).
T2 construct: histidine-tag (N); made in house; host or cells: bacterial expression (pETite vector, IPTG induction)
T2 sequence (P05091 18-517): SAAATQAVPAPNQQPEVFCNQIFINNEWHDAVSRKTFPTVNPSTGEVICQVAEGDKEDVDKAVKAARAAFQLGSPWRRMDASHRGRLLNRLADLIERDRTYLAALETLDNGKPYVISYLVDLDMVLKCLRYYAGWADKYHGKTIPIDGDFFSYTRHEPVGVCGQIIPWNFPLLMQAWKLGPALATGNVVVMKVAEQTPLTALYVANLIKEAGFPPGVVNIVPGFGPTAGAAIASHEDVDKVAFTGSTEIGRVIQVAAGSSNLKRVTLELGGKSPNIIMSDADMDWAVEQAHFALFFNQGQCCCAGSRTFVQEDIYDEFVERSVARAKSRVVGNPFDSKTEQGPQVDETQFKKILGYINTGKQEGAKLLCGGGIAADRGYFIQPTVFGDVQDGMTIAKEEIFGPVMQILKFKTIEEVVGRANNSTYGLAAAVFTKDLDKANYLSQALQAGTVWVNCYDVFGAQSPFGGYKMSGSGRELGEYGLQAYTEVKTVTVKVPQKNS
The experiment in a line: Purified ALDH2 assay with propanal, NADH fluorescence. The assay is classed as biochemical. As to conditions: purified enzyme. The gist of the method:
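His-tagged human ALDH2 expressed in bacteria and purified. 2 μg enzyme incubated with 20 μM propanal and varying inhibitor concentrations at room temperature. Activity read as NADH fluorescence (Ex 350/Em 460 nm), with initial velocity from two consecutive readings over 1 minute.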

A word on the IC50: it is the concentration that gives 50% inhibition. Higher therefore signals weaker potency in that assay.

Consider “3-(4-Acryloylphenyl)-1-phenyl-1H-pyrazole-4-carbaldehyde [Compound 309]”, for which the IC50 at ALDH1A1 was 0.005 µM; at ALDH2, above 0.16 µM.
In the case of “3-{4-[(Chloroacetyl)amino]phenyl}-N-(3-fluorophenyl)-1-phenyl-1H-pyrazole-4-carboxamide [Compound 294]”, the results for the IC50 at ALDH1A1 and against ALDH2 were 0.003 µM and 24.4 µM, respectively.
For `N#Cc1ccc(-n2cc(C(=O)Nc3cccc(F)c3)c(-c3ccc(NC(=O)C(Cl)Cl)cc3)n2)cc1` [Compound 316a, 3-(4-Dichloroacetamidophenyll)-N-(3-fluorophenyl)-1-(4-cyanophenyl)-1H-pyrazole-4-carboxamide], in that order: 0.249 µM and 4 µM.
Turning to `O=C(c1ccccc1)N1CCN(c2ccc([N+](=O)[O-])c(N3CCCC3)c2)CC1` [Compound 339, Phenyl-1-{4-[4-nitro-3-(pyrrolidin-1-yl)phenyl]piperazin-1-yl}methanone], the concentration for half-maximal inhibition (IC50) against ALDH1A1 was determined as 0.675 µM; on ALDH2 it was 48.1 µM.
The like results for `O=C(c1cccc(Cl)c1)N1CCN(c2ccc([N+](=O)[O-])c(N3CCCC3)c2)CC1` [Compound 341, 3-Chlorophenyl-1-{4-[4-nitro-3-(pyrrolidin-1-yl)phenyl]piperazin-1-yl}methanone] were, in that order, 1.65 µM and above 100 µM.
With `O=C(c1ccc[nH]1)N1CCN(c2ccc([N+](=O)[O-])c(N3CCCC3)c2)CC1` [Compound 344, {4-[4-Nitro-3-(pyrrolidin-1-yl)phenyl]piperazin-1-yl}(1H-pyrrol-2-yl)methanone], the concentration for half-maximal inhibition (IC50) against ALDH1A1 is 0.453 µM; against ALDH2, 48.6 µM.
For `CC(=O)n1cccc1C(=O)N1CCN(c2ccc([N+](=O)[O-])c(N3CCCC3)c2)CC1` [Compound 347, {4-[4-Nitro-3-(pyrrolidin-1-yl)phenyl]piperazin-1-yl}(1-acetyl-pyrrol-2yl)methanone], the IC50 at ALDH1A1 is 1.07 µM; at ALDH2 it was 61.6 µM.
Turning to `Cn1cccc1C(=O)N1CCN(c2ccc(NC(=O)C(Cl)Cl)c(N3CCCC3)c2)CC1` [Compound 367, 1-[4-(4-N-Dichloroacetyl-3-(pyrrolidin-1-yl)phenyl]piperazin-1-yl](1-methyl-1H-pyrrol-2-yl)methanone], the IC50 against ALDH1A1 was 0.23 µM; against ALDH2 it was above 80 µM.
With `Cn1cccc1C(=O)N1CCN(c2ccc(NC(=O)CCl)c(N3CCCC3)c2)CC1` [Compound 372, 1-[4-(4-N-Chloroacetyl-3-(pyrrolidin-1-yl)phenyl]piperazin-1-yl](1-methyl-1H-pyrrol-2-yl)methanone], the figures for the concentration for half-maximal inhibition (IC50) against ALDH1A1 and on ALDH2 were 0.3 µM and 3.5 µM, respectively.
In the case of `Cn1cccc1C(=O)N1CCN(c2ccc(-c3ccc([N+](=O)[O-])cc3)c(N3CCCCC3)c2)CC1` [Compound 373], the concentration for half-maximal inhibition (IC50) is 1.44 µM on ALDH1A1 and above 100 µM against ALDH2.
